Values of other authors as cited in patent US20210315915A1, “PHARMACEUTICAL COMPOSITIONS OF RIBAVIRIN” (GlaxoSmithKline Intellectual Property (No.2) Limited, priority 2015, published 2021).

How the values were obtained:
[1] = FDA approved labeling of Rebetol
[2] = crystalline white powder

Which multiple-dose half-life [1] does the source give for NC(=O)c1ncn([C@@H]2O[C@H](CO)[C@@H](O)[C@H]2O)n1 [ribavirin, 1-β-D-ribofuranosyl-1H-1,2,4-triazole-3-carboxamide] here?
The multiple-dose half-life was 12 days.

And the “persistence in nonplasma compartments” value [1]?
Its value is ≤ 6 months.

What about the “solubility in ethanol (96%)” value [2] of the same compound?
The value was “slightly soluble”.

What about the solubility in water [2] of the same compound?
Its solubility in water is “freely soluble”.
